Data from the supplement of paper PMC10307832.

Assays:
Assay in all cases: relative viability (nuclei count vs DMSO), 5 days (fraction); higher = more cells survive
[1] = compound: C1=CC(=CC=C1NC(=S)NNC2=C(C=C(C=C2[N+](=O)[O-])C(F)(F)F)[N+](=O)[O-])F [Kobe2602] + N=C(N)NC(=N)NCCc1ccccc1 [Phenformin] (partner 250 µM)
In short: (§1)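 Relative viability divides the nuclei count in treated wells by that in vehicle wells. Lung cancer cell lines were seeded in 1536-well plates, dosed by pin tool the next day, and fixed and stained after 5 days in one step with final 0.05% Triton X-100, 1% formaldehyde and 1 ug/ml Hoechst. Dosing was a single drug or a fixed anchor-drug dose plus five library-drug doses (not always all listed) in √10 steps, and values are medians of duplicate plates imaged at 4×.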

[2] = compound: COc1cc2nccc(Oc3ccc(NC(=O)C4(C(=O)Nc5ccc(F)cc5)CC4)cc3)c2cc1OC [Cabozantinib] + C[C@@H](Oc1cc(-c2cnn(C3CCNCC3)c2)cnc1N)c1c(Cl)ccc(F)c1Cl [Crizotinib] (partner 1 µM)
In short: as §1

[3] = compound: O[C@@H](COc1cccc2ncccc12)CN1CCN([C@@H]2c3ccccc3[C@@H]3[C@H](c4ccccc42)C3(F)F)CC1 [Zosuquidar] + CC(C)C[C@H](NC(=O)[C@H](Cc1ccccc1)NC(=O)c1cnccn1)B(O)O [Bortezomib] (partner 0.002 µM)
In short: as §1

[4] = compound: C1=CC(=CC=C1NC(=S)NNC2=C(C=C(C=C2[N+](=O)[O-])C(F)(F)F)[N+](=O)[O-])F [Kobe2602] + CC(=O)c1c(C)c2cnc(Nc3ccc(N4CCNCC4)cn3)nc2n(C2CCCC2)c1=O [Palbociclib] (partner 0.5 µM)
In short: as §1

Cell Line | relative viability ([1]; first compound 0.2 µM) | relative viability ([1]; first compound 0.6325 µM) | relative viability ([1]; first compound 2 µM) | relative viability ([1]; first compound 6.325 µM) | relative viability ([1]; first compound 20 µM) | relative viability ([2]; first compound 0.02 µM) | relative viability ([2]; first compound 0.06325 µM) | relative viability ([2]; first compound 0.2 µM) | relative viability ([2]; first compound 0.6325 µM) | relative viability ([2]; first compound 2 µM) | relative viability ([3]; first compound 0.01 µM) | relative viability ([3]; first compound 0.03162 µM) | relative viability ([3]; first compound 0.1 µM) | relative viability ([3]; first compound 0.3162 µM) | relative viability ([3]; first compound 1 µM) | relative viability ([4]; first compound 0.2 µM) | relative viability ([4]; first compound 0.6325 µM) | relative viability ([4]; first compound 2 µM) | relative viability ([4]; first compound 6.325 µM) | relative viability ([4]; first compound 20 µM)
NCI-H596 | 0.717 | 0.816 | 0.672 | 0.614 | 0.737 | 1.06 | 1.06 | 0.87 | 1.01 | 0.888 | 0.985 | 1.09 | 0.718 | 1.02 | 1.01 |  |  |  |  | 
NCI-H1395 | 0.484 | 0.435 | 0.453 | 0.451 | 0.456 |  |  |  |  |  |  |  |  |  |  | 0.636 | 0.69 | 0.638 | 0.589 | 0.647
LK-2 | 0.461 | 0.579 | 0.489 | 0.624 | 0.516 |  | 0.225 | 0.201 | 0.179 | 0.204 |  |  |  |  |  | 0.904 | 0.628 | 0.81 | 0.649 | 0.687
NCI-H1944 | 0.212 | 0.216 | 0.206 | 0.201 | 0.209 |  | 1.26 | 1.1 | 1.07 | 1.21 |  |  |  |  |  | 0.351 | 0.343 | 0.311 | 0.333 | 0.371
NCI-H1648 |  |  |  |  |  |  |  |  |  |  |  |  |  |  |  | 0.237 | 0.275 | 0.248 | 0.228 | 0.283
NCI-H1703 |  |  |  |  |  |  | 0.296 | 0.172 | 0.249 | 0.175 | 0.441 | 0.329 | 0.371 | 0.397 | 0.567 |  |  |  |  | 
EBC-1 |  |  |  |  |  | 0.194 | 0.173 | 0.182 | 0.198 | 0.213 | 0.649 | 0.553 | 0.652 | 0.591 | 0.547 |  |  |  |  | 
NCI-H1793 | 0.33 | 0.398 | 0.399 | 0.333 | 0.446 |  |  |  |  |  |  |  |  |  |  | 0.326 | 0.318 | 0.304 | 0.31 | 0.293
NCI-H1563 | 0.684 | 0.719 | 0.675 | 0.668 | 0.676 | 0.948 | 1.03 | 0.904 | 0.77 | 0.802 | 0.842 | 0.882 | 0.807 | 1.04 | 0.858 |  |  |  |  | 
IA-LM |  |  |  |  |  | 0.962 | 0.795 | 0.908 | 0.755 | 0.92 | 0.925 | 0.797 | 0.975 | 1.03 | 0.84 |  |  |  |  | 
SK-MES-1 | 0.676 | 0.715 | 0.683 | 0.589 | 0.455 | 1.13 | 1.14 | 1.02 | 1.03 | 0.825 |  |  |  |  |  | 0.323 | 0.338 | 0.335 | 0.28 | 0.201
NCI-H2170 | 0.414 | 0.475 | 0.423 | 0.406 | 0.403 | 1.33 | 1.4 | 1.27 | 1.15 | 1.19 |  |  |  |  |  | 0.429 | 0.388 | 0.375 | 0.392 | 0.393
